Laboratory results published in paper PMC11576293, “New series of 4,6-diaryl pyrimidines: facile synthesis and antiproliferative activity as dual EGFR/VEGFR-2 inhibitors” (Frontiers in Chemistry, 2024).

Tests used:
Assay in all cases: NCI-60 single-dose screen
Assay type in all cases: cell-based
KM12 = conditions: Homo sapiens, single dose 10 µM, '-' = no inhibition, read-out: % Growth Inhibition
Method in brief: (§1)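 NCI DTP single-dose screen; 10 μM compound; 60-line panel, nine cancer types.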

SNB-75 = conditions: Homo sapiens, single dose 10 µM, '-' = no inhibition, read-out: % Growth Inhibition
Method in brief: as §1

SK-MEL-2 = conditions: Homo sapiens, single dose 10 µM, '-' = no inhibition, read-out: % Growth Inhibition
Method in brief: as §1

NCI/ADR-RES = conditions: Homo sapiens, single dose 10 µM, '-' = no inhibition, read-out: % Growth Inhibition
Method in brief: as §1

786-0 = conditions: Homo sapiens, single dose 10 µM, '-' = no inhibition, read-out: % Growth Inhibition
Method in brief: as §1

HOP-62 = conditions: Homo sapiens, single dose 10 µM, '-' = no inhibition, read-out: % Growth Inhibition
Method in brief: as §1

SN12C = conditions: Homo sapiens, single dose 10 µM, '-' = no inhibition, read-out: % Growth Inhibition
Method in brief: as §1

HS 578T = conditions: Homo sapiens, single dose 10 µM, '-' = no inhibition, read-out: % Growth Inhibition
Method in brief: as §1

UO-31 = conditions: Homo sapiens, single dose 10 µM, '-' = no inhibition, read-out: % Growth Inhibition
Method in brief: as §1

UACC-62 = conditions: Homo sapiens, single dose 10 µM, '-' = no inhibition, read-out: % Growth Inhibition
Method in brief: as §1

CCRF-CEM = conditions: Homo sapiens, single dose 10 µM, '-' = no inhibition, read-out: % Growth Inhibition
Method in brief: as §1

SK-MEL-28 = conditions: Homo sapiens, single dose 10 µM, '-' = no inhibition, read-out: % Growth Inhibition
Method in brief: as §1

EKVX = conditions: Homo sapiens, single dose 10 µM, '-' = no inhibition, read-out: % Growth Inhibition
Method in brief: as §1

CAKI-1 = conditions: Homo sapiens, single dose 10 µM, '-' = no inhibition, read-out: % Growth Inhibition
Method in brief: as §1

NCI-H522 = conditions: Homo sapiens, single dose 10 µM, '-' = no inhibition, read-out: % Growth Inhibition
Method in brief: as §1

SF-295 = conditions: Homo sapiens, single dose 10 µM, '-' = no inhibition, read-out: % Growth Inhibition
Method in brief: as §1

HCT-15 = conditions: Homo sapiens, single dose 10 µM, '-' = no inhibition, read-out: % Growth Inhibition
Method in brief: as §1

TK-10 = conditions: Homo sapiens, single dose 10 µM, '-' = no inhibition, read-out: % Growth Inhibition
Method in brief: as §1

OVCAR-5 = conditions: Homo sapiens, single dose 10 µM, '-' = no inhibition, read-out: % Growth Inhibition
Method in brief: as §1

HCT-116 = conditions: Homo sapiens, single dose 10 µM, '-' = no inhibition, read-out: % Growth Inhibition
Method in brief: as §1

T-47D = conditions: Homo sapiens, T47D, single dose 10 µM, '-' = no inhibition, read-out: % Growth Inhibition
Method in brief: as §1

UACC-257 = conditions: Homo sapiens, single dose 10 µM, '-' = no inhibition, read-out: % Growth Inhibition
Method in brief: as §1

IGROV1 = conditions: Homo sapiens, IGROV-1, single dose 10 µM, '-' = no inhibition, read-out: % Growth Inhibition
Method in brief: as §1

SW-620 = conditions: Homo sapiens, single dose 10 µM, '-' = no inhibition, read-out: % Growth Inhibition
Method in brief: as §1

RXF 393 = conditions: Homo sapiens, single dose 10 µM, '-' = no inhibition, read-out: % Growth Inhibition
Method in brief: as §1

MCF7 = conditions: Homo sapiens, single dose 10 µM, '-' = no inhibition, read-out: % Growth Inhibition
Method in brief: as §1

HOP-92 = conditions: Homo sapiens, single dose 10 µM, '-' = no inhibition, read-out: % Growth Inhibition
Method in brief: as §1

SK-OV-3 = conditions: Homo sapiens, single dose 10 µM, '-' = no inhibition, read-out: % Growth Inhibition
Method in brief: as §1

NCI-H460 = conditions: Homo sapiens, single dose 10 µM, '-' = no inhibition, read-out: % Growth Inhibition
Method in brief: as §1

A498 = conditions: Homo sapiens, single dose 10 µM, '-' = no inhibition, read-out: % Growth Inhibition
Method in brief: as §1

MALME-3M = conditions: Homo sapiens, single dose 10 µM, '-' = no inhibition, read-out: % Growth Inhibition
Method in brief: as §1

HCC-2998 = conditions: Homo sapiens, single dose 10 µM, '-' = no inhibition, read-out: % Growth Inhibition
Method in brief: as §1

SNB-19 = conditions: Homo sapiens, single dose 10 µM, '-' = no inhibition, read-out: % Growth Inhibition
Method in brief: as §1

SF-539 = conditions: Homo sapiens, single dose 10 µM, '-' = no inhibition, read-out: % Growth Inhibition
Method in brief: as §1

BT-549 = conditions: Homo sapiens, single dose 10 µM, '-' = no inhibition, read-out: % Growth Inhibition
Method in brief: as §1

MDA-MB-435 = conditions: Homo sapiens, single dose 10 µM, '-' = no inhibition, read-out: % Growth Inhibition
Method in brief: as §1

M14 = conditions: Homo sapiens, single dose 10 µM, '-' = no inhibition, read-out: % Growth Inhibition
Method in brief: as §1

PC-3 = conditions: Homo sapiens, single dose 10 µM, '-' = no inhibition, read-out: % Growth Inhibition
Method in brief: as §1

MOLT-4 = conditions: Homo sapiens, single dose 10 µM, '-' = no inhibition, read-out: % Growth Inhibition
Method in brief: as §1

MDA-MB-468 = conditions: Homo sapiens, single dose 10 µM, '-' = no inhibition, read-out: % Growth Inhibition
Method in brief: as §1

SK-MEL-5 = conditions: Homo sapiens, single dose 10 µM, '-' = no inhibition, read-out: % Growth Inhibition
Method in brief: as §1

HT29 = conditions: Homo sapiens, HT-29, single dose 10 µM, '-' = no inhibition, read-out: % Growth Inhibition
Method in brief: as §1

ACHN 1 = conditions: Homo sapiens, single dose 10 µM, '-' = no inhibition, read-out: % Growth Inhibition
Method in brief: as §1

SF-268 = conditions: Homo sapiens, single dose 10 µM, '-' = no inhibition, read-out: % Growth Inhibition
Method in brief: as §1

U251 = conditions: Homo sapiens, U-251, single dose 10 µM, '-' = no inhibition, read-out: % Growth Inhibition
Method in brief: as §1

A549/ATCC = conditions: Homo sapiens, single dose 10 µM, '-' = no inhibition, read-out: % Growth Inhibition
Method in brief: as §1

OVCAR-3 = conditions: Homo sapiens, single dose 10 µM, '-' = no inhibition, read-out: % Growth Inhibition
Method in brief: as §1

RPMI-8226 = conditions: Homo sapiens, single dose 10 µM, '-' = no inhibition, read-out: % Growth Inhibition
Method in brief: as §1

COc1ccc(CSc2nc(-c3ccc(Cl)cc3)cc(-c3ccc(OC)c(OC)c3)n2)cc1 [Compound 29, 2-(4-Methoxybenzylthio)-4-(4-chlorophenyl)-6-(3,4-dimethoxyphenyl)pyrimidine]
inhibition at 10 µM (KM12): 24.8%
inhibition at 10 µM (SNB-75): 1.93%
inhibition at 10 µM (SK-MEL-2): 13.7%
inhibition at 10 µM (NCI/ADR-RES): 32.1%
inhibition at 10 µM (786-0): 11.6%
inhibition at 10 µM (HOP-62): 16.4%
inhibition at 10 µM (SN12C): 35.6%
inhibition at 10 µM (HS 578T): 37.5%
inhibition at 10 µM (UO-31): 33.1%
inhibition at 10 µM (UACC-62): 38.7%
inhibition at 10 µM (CCRF-CEM): 14.2%
inhibition at 10 µM (SK-MEL-28): 11.3%
inhibition at 10 µM (EKVX): 29.7%
inhibition at 10 µM (CAKI-1): 23.1%
inhibition at 10 µM (NCI-H522): 23.1%
inhibition at 10 µM (SF-295): 16.7%
inhibition at 10 µM (HCT-15): 42.1%
inhibition at 10 µM (TK-10): < 0%
inhibition at 10 µM (OVCAR-5): 7.38%
inhibition at 10 µM (HCT-116): 30.2%
inhibition at 10 µM (T-47D): 34.6%
inhibition at 10 µM (UACC-257): 0.85%
inhibition at 10 µM (IGROV1): 6.14%
inhibition at 10 µM (SW-620): 12.7%
inhibition at 10 µM (RXF 393): 24.2%
inhibition at 10 µM (MCF7): 27.4%
inhibition at 10 µM (HOP-92): 20.6%
inhibition at 10 µM (SK-OV-3): 13.9%
inhibition at 10 µM (NCI-H460): 21.2%
inhibition at 10 µM (A498): < 0%
inhibition at 10 µM (MALME-3M): 4.95%
inhibition at 10 µM (HCC-2998): < 0%
inhibition at 10 µM (SNB-19): 14.2%
inhibition at 10 µM (SF-539): 14.7%
inhibition at 10 µM (BT-549): 21.4%
inhibition at 10 µM (MDA-MB-435): 22.8%
inhibition at 10 µM (M14): 19.3%
inhibition at 10 µM (PC-3): 36.4%
inhibition at 10 µM (MOLT-4): 46.5%
inhibition at 10 µM (MDA-MB-468): 40.2%
inhibition at 10 µM (SK-MEL-5): 22.6%
inhibition at 10 µM (HT29): 38%
inhibition at 10 µM (ACHN 1): 13.2%
inhibition at 10 µM (SF-268): 33%
inhibition at 10 µM (U251): 23.3%
inhibition at 10 µM (A549/ATCC): 30.1%
inhibition at 10 µM (OVCAR-3): < 0%
inhibition at 10 µM (RPMI-8226): 36.9%
